Measurements taken from patent US20240398781A1, “SPIROCYCLIC CYCLIC MODULATORS OF CHOLESTEROL BIOSYNTHESIS AND THEIR USE FOR PROMOTING REMYELINATION” (GENENTECH, INC., priority 2021, published 2024).

How the values were obtained:
[1] = system: EBP (zymostenol accumulation in EpiSC-derived OPCs); test: GC/MS-based sterol profiling, zymostenol accumulation in OPCs; type: cell-based, mouse; conditions: Mus musculus, 24 h, EpiSC-derived OPCs, 24 hr treatment, 8 doses from 0.15 nM to 333 nM; read-out: Zymostenol GCMS EC50
Description: To assess effects of treatments on OPCs, all treatments were assayed in two or more independent platings of epiblast stem cell-derived OPCs ([…]-derived OPCs were obtained using in vitro differentiation protocols and culture conditions described previously (Najm et al, 2011, Nature Methods). OPCs were expanded and frozen down in aliquots. OPCs were thawed into growth conditions for at least one passage before use in further assays. Sterols were monitored using a modified Folch wash protocol (Hubler et al, 2018, Nature). EpiSC-derived OPCs were plated at 100,000 cells per well in PO- and laminin-coated 96-well plates in N2B27 media without growth factors. After 24 hours, cells were rinsed with saline and plates were frozen. Cholesterol-d7 standard was then added to each well before drying under nitrogen stream and derivatization with 55 μl of bis(trimethylsilyl) trifluoroacetamide. After derivatization, 2 μl were analyzed by gas chromatography/mass spectrometry using an Agilent 5973 Network Mass Selective Detector equipped with a 6890 gas chromatograph system and a HP-5MS capillary column (30 m×0.25 mm×0.25 mm). Samples were analyzed in full scan mode using electron impact ionization; ion fragment peaks were integrated to calculate sterol abundance, and quantitation was relative to cholesterol-d7. […] All standards were obtained from Avanti Polar Lipids unless otherwise indicated. Calibration curves were generated by injecting varying concentrations of sterol standards and maintaining a fixed amount of cholesterol-D7. For normalized zymostenol accumulation results, the total amount of zymostenol measured after drug treatment was divided by the total amount of zymostenol accumulated after 24 hr treatment with 100 nM positive control reference.

[2] = target: human emopamil binding protein and human 7-dehydrocholesterol reductase co-expressing cells (hEBP-DHCR7 membrane) (Homo sapiens (Human), UniProt Q15125); test: Radioligand filter binding assay on hEBP-DHCR7 membrane; conditions: [3H]-(S)-6-(2-Methyl-3-(6-(trifluoromethyl)pyridin-3-yl)propyl)-2-thia-6-azaspiro[3.4]octane 2,2-dioxide radioligand, HEK293 membrane co-expressing hEBP and hDHCR7
human emopamil binding protein and human 7-dehydrocholesterol reductase co-expressing cells (hEBP-DHCR7 membrane), sequence (Q15125 whole entry): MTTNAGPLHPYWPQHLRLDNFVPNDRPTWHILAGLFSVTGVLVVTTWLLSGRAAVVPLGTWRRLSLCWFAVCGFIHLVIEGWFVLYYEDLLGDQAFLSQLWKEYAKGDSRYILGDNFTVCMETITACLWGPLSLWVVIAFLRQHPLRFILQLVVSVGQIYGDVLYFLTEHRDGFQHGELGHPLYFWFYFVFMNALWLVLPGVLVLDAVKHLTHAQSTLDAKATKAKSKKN
Description: Membrane Preparation: human emopamil binding protein and human 7-dehydrocholesterol reductase co-expressing cells were generated by transient transfecting host human embryonic kidney (HEK) 293 cells with 2 DNA constructs containing each protein's coding sequence. Cells were suspension cultured at 37° C. with 5% CO2 in […] 293 Expression Medium (Thermofisher). Whole cell membrane was prepared by harvesting the cell pellet, adding cold membrane buffer (50 mM Tris, pH7.5, lx Roche COMPLETE EDTA-free protease inhibitor cocktail) 10 times volume of the cell pellets weight, lysing cell pellet on ice by using Dounce homogenizer, spinning at 200 g 4° C. for 15 min, collecting supernatant and spinning again at 25000 g 4° C. for 50 min, transferring pellet to Dounce homogenizer, re-suspending pellet by homogenizing in membrane buffer on ice to reach ˜25 mg/mL, then keeping whole cell membrane aliquots at −80° C.
Compounds were prepared in a 96-well U bottom plate using an Echo550 machine and 10 mM compound DMSO stock solution, followed by an 8-dose 5-fold serial dilutions protocol with final testing compound concentration ranging from 0.06 to 5000 nM, with DMSO back fill to 100 nL/well and n=2. […] The UniFilter-96 GF/B plates were pre-treated by adding 50 μl/well of 0.3% (v/v) PEI to UniFilter-96 GF/B plates. The plates were sealed and incubated at 4° C. for 3 hrs. Then, the plates were washed with ice-cold assay buffer 3 times. The radioligand binding assay was prepared by adding assay buffer diluted hEBP-DHCR7 membrane at 66.7 μg/ml×150 μl/well into the 96-well compound plate to reach 10 μg membrane per well. Then, the assay buffer diluted [3H]—(S)-6-(2-Methyl-3-(6-(trifluoromethyl)pyridin-3-yl)propyl)-2-thia-6-azaspiro[3.4] octane 2,2-dioxide was added at 25 nM×50 μl/well. Following this, the plate was centrifuged at 1000 rpm for 30 secs. The plate was then sealed and agitated at 600 rpm at 22° C. for 5 min, and then incubated at 22° C. for 3 hrs. The incubation was stopped by transferring the binding solution to the pre-treated UniFilter-96 GF/B plate, vacuum filtrated, and then washed four times with ice-cold assay buffer. Following this, the plates were dried at 37° C. for 45 min. The plates were then sealed at the bottom. 40 μl/well of scintillation cocktail was added to the plates. A MicroBeta2 microplate counter was then used to read the plate and analyze the data. For reference and test compounds, the results are expressed as % Inhibition, using the normalization equation: N=100−100×(U−C2)/(C1−C2), where U is the unknown value, C1 is the average of high controls, and C2 is the average value of low controls. The IC50 was determined by fitting percentage of inhibition as a function of compound concentrations with Hill equation using XLfit. Results are expressed as hEBP-DHCR7 Ki (uM) in Table 4. Ki was calculated as described above. The asterix (*) indicates an isolated isomer or isolated group of isomers, but that the stereochemistry has not been assigned.

| Compound | EC50 [1] [nM] | Ki [2] [nM] |
| --- | --- | --- |
| CC(C)n1nc(-c2ccc(C(F)(F)F)cc2)nc1[C@@H]1CC[C@H](N2CCC3(C2)CS(=O)(=O)C3)C1 (single isomer, unassigned) [53C*] | 1.1 | 10 |
| O=S1(=O)CC2(CCN([C@@H]3CCC[C@H](c4ccc(C(F)(F)F)nc4)C3)C2)C1 (single isomer, unassigned) [54A*] | 61 | 21 |
| O=S1(=O)CC2(CCN([C@H]3CCC[C@@H](c4ccc(C(F)(F)F)nc4)C3)C2)C1 (single isomer, unassigned) [54C*] | > 330 | 347 |
| CC(C)n1nc(C(F)(F)F)cc1[C@@H]1CCC[C@@H](N2CCC3(C2)CS(=O)(=O)C3)C1 (single isomer, unassigned) [61A*] | > 330 | 80 |
| CC(C)n1nc(C(F)(F)F)cc1[C@H]1CCC[C@@H](N2CCC3(C2)CS(=O)(=O)C3)C1 (single isomer, unassigned) [61B*] | 100 | 23 |
| CC(C)n1nc(C(F)(F)F)cc1[C@H]1CCC[C@H](N2CCC3(C2)CS(=O)(=O)C3)C1 (single isomer, unassigned) [61D*] | > 330 | 344 |
| O=S1(=O)CC2(CCN([C@@H]3CCCN(c4ccc(C(F)(F)F)nc4)C3)C2)C1 (single isomer, unassigned) [66A*] | > 330 | 1980 |
| O=S1(=O)CC2(CCN([C@H]3CCCN(c4ccc(C(F)(F)F)nc4)C3)C2)C1 (single isomer, unassigned) [66B*] | 12 | 61 |
| O=S1(=O)CC[C@@]2(CCCN([C@H]3CC[C@@H](c4ccc(C(F)(F)F)cn4)CC3)C2)C1 (single isomer, unassigned) [68A*] | 190 |  |
| O=S1(=O)CC[C@]2(CCCN([C@H]3CC[C@@H](c4ccc(C(F)(F)F)cn4)CC3)C2)C1 (single isomer, unassigned) [68C*] | > 330 |  |
| O=S1(=O)CC[C@]2(CCCN([C@H]3CC[C@H](c4ccc(C(F)(F)F)cn4)CC3)C2)C1 (single isomer, unassigned) [68D*] | 42 |  |
| O=S1(=O)CC[C@@]2(CCCN([C@H]3CC[C@H](c4cc(C(F)(F)F)nn4C4CC4)CC3)C2)C1 (single isomer, unassigned) [69B*] | 23 | 35 |
| O=S1(=O)CC[C@]2(CCCN([C@H]3CC[C@H](c4cc(C(F)(F)F)nn4C4CC4)CC3)C2)C1 (single isomer, unassigned) [69D*] | 58 | 50 |
| O=S1(=O)CC[C@@]2(CCCN([C@H]3CC[C@H](c4ccc(C(F)(F)F)nc4)CC3)C2)C1 (single isomer, unassigned) [71B*] | 280 |  |
| O=S1(=O)CC[C@]2(CCCN([C@H]3CC[C@@H](c4ccc(C(F)(F)F)nc4)CC3)C2)C1 (single isomer, unassigned) [71C*] | 62 |  |
| O=S1(=O)CC[C@]2(CCCN([C@H]3CC[C@H](c4ccc(C(F)(F)F)nc4)CC3)C2)C1 (single isomer, unassigned) [71D*] | > 330 |  |
| CC(C)n1nc(C(F)(F)F)cc1[C@@H]1CCC[C@@H](N2CCC3(CC2)CS(=O)(=O)C3)C1 (single isomer, unassigned) [78A*] | > 330 | 71 |
| CC(C)[C@@H]1C[C@@H](N2CCC3(C2)CS(=O)(=O)C3)CCN1c1ccc(C(F)(F)F)nc1 (single isomer, unassigned) [82B*] | 19 | 46 |
| CC(C)n1nc(C(F)(F)F)cc1[C@H]1CC[C@H](N2CCC[C@@]3(CCS(=O)(=O)C3)C2)CC1 (single isomer, unassigned) [91B*] | 60 | 310 |
| CC(C)n1nc(C(F)(F)F)cc1[C@H]1CC[C@@H](N2CCC[C@]3(CCS(=O)(=O)C3)C2)CC1 (single isomer, unassigned) [91C*] | 8.2 |  |
| CC(C)n1nc(C(F)(F)F)cc1[C@H]1CC[C@H](N2CCC[C@]3(CCS(=O)(=O)C3)C2)CC1 (single isomer, unassigned) [91D*] | 50 |  |
| CC(C)C1C[C@H](N2CCC3(C2)CS(=O)(=O)C3)CCN1c1ccc(C(F)(F)F)nc1 (stereo in doubt) [82A*, 6-((2R,4R)-2-Isopropyl-1-(6-(trifluoromethyl)pyridin-3-yl)piperidin-4-yl)-2-thia-6-azaspiro[3.4]octane 2,2-dioxide] | 280 | 89 |
| CC(C)[C@H]1CC(N2CCC3(C2)CS(=O)(=O)C3)CCN1c1ccc(C(F)(F)F)nc1 (stereo in doubt) [82C*, 6-((2R,4S)-2-isopropyl-1-(6-(trifluoromethyl)pyridin-3-yl)piperidin-4-yl)-2-thia-6-azaspiro[3.4]octane 2,2-dioxide] | > 330 | 36 |
| CC(C)[C@@H]1C[C@H](N2CCC3(C2)CS(=O)(=O)C3)CCN1c1ccc(C(F)(F)F)nc1 (stereo in doubt) [82D*, 6-((2S,4R)-2-isopropyl-1-(6-(trifluoromethyl)pyridin-3-yl)piperidin-4-yl)-2-thia-6-azaspiro[3.4]octane 2,2-dioxide] | > 330 | 100 |
| O=S1(=O)CC2(CCN([C@H]3CC[C@H](c4ccc(C(F)(F)F)nc4)CC3)CC2)C1 [81A*, 7-((1r,4r)-4-(6-(Trifluoromethyl)pyridin-3-yl)cyclohexyl)-2-thia-7-azaspiro[3.5]nonane 2,2-dioxide] | 36 | 85 |
| O=S1(=O)CCC2(CCN([C@H]3CC[C@@H](c4ccc(C(F)(F)F)cn4)CC3)C2)CC1 [84A*, 2-((1r,4r)-4-(5-(Trifluoromethyl)pyridin-2-yl)cyclohexyl)-8-thia-2-azaspiro[4.5]decane 8,8-dioxide] | 100 | 310 |
| O=S1(=O)CC2(CCN([C@H]3CC[C@@H](c4ncc(C(F)(F)F)cc4Cl)CC3)C2)C1 [Compound 48B, 6-((1s,4s)-4-(3-chloro-5-(trifluoromethyl)pyridin-2-yl)cyclohexyl)-2-thia-6-azaspiro[3.4]octane 2,2-dioxide] | 14 | 9.6 |
| O=S1(=O)CC2(CCN([C@H]3CC[C@H](c4ccnc(C(F)(F)F)c4Cl)CC3)C2)C1 [Compound 92A, 6-((1r,4r)-4-(3-Chloro-2-(trifluoromethyl)pyridin-4-yl)cyclohexyl)-2-thia-6-azaspiro[3.4]octane 2,2-dioxide] | 36 |  |
| O=S1(=O)CC2(CCN([C@H]3CC[C@@H](c4ccnc(C(F)(F)F)c4Cl)CC3)C2)C1 [Compound 92B, 6-((1s,4s)-4-(3-chloro-2-(trifluoromethyl)pyridin-4-yl)cyclohexyl)-2-thia-6-azaspiro[3.4]octane 2,2-dioxide] | 5.2 |  |
| O=S1(=O)CC2(CCCN([C@H]3CC[C@H](c4ccnc(C(F)(F)F)c4)CC3)C2)C1 [Compound 93, 6-((1r,4r)-4-(2-(Trifluoromethyl)pyridin-4-yl)cyclohexyl)-2-thia-6-azaspiro[3.5]nonane 2,2-dioxide] | 12 |  |
